In US20110275635A1 (priority 2009, published 2011):
In brackets after ≈: the same amount, converted by molar mass. Structures can show the parent of a compound that is named as a salt. Where two headings read alike, the source gives them in different places.

What was measured:
B. anthracis NADs = B. anthracis NADs (Bacillus anthracis, UniProt Q81RP3); format: biochemical
[1] = test system: Bacillus anthracis Sterne; test: microbe, parasite or virus in culture; format: cell-based; settings: for MIC: Bacillus anthracis
HEK293 = test: In vitro inhibition of normal human cells; format: cell-based
hNaMNAT-1 = hNaMNAT-1 (Homo sapiens, UniProt Q9HAN9); test: Human NAMNAT inhibition in vitro; format: biochemical
BEAS-23 = test: In vitro inhibition of normal human cells; format: cell-based; settings: read-out: In Vitro Inhibition Normal Human Cells (IC50, μM) BEAS-23
HCC1937 = test: In vitro human breast cancer cell growth inhibition; format: cell-based
Hep-G2 = test: In vitro inhibition of normal human cells; format: cell-based; settings: HepG2
IMR90 = test: In vitro inhibition of normal human cells; format: cell-based; settings: IMR-90
MDA-MB-436 = test: In vitro human breast cancer cell growth inhibition; format: cell-based
SUM159 = test: as above; format: cell-based
[2] = In vivo toxicity, maximum tolerated dose; settings: female, BALB/c, mouse, intraperitoneal
[3] = HCC1937 cells, read-out: In Vitro Human Breast Cancer Inhibition (IC50, μM) HCC1937
[4] = MDA-MB-436 cells, read-out: In Vitro Human Breast Cancer Inhibition (IC50, μM) MDA-MB-436
[5] = SUM159 cells, read-out: In Vitro Human Breast Cancer Inhibition (IC50, μM) SUM159

Chain of B. anthracis NADs (Q81RP3 whole entry, looked up): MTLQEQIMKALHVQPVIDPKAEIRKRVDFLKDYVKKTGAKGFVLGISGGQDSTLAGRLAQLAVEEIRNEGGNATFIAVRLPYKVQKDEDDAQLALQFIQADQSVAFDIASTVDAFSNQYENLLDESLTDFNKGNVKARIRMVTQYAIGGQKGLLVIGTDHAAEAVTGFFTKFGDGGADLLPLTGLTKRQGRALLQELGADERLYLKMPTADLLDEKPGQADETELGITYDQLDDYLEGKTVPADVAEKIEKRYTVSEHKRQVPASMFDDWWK
Chain of hNaMNAT-1 (Q9HAN9 whole entry): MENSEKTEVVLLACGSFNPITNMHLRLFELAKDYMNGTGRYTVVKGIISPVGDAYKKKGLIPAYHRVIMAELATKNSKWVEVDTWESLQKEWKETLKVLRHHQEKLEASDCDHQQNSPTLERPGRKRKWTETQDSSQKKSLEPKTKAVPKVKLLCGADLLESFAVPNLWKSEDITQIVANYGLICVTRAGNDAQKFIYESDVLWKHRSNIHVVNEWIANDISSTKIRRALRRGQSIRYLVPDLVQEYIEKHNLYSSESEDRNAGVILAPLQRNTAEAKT

Row | SMILES | IC50 (B. anthracis NADs; read-out: IC50) | IC50 (B. anthracis NADs; read-out: NADs IC50) | MIC ([1]; read-out: B.a. MIC (μM)) | further results
1 | Cc1ccc(-c2nc3cc(Cl)ccc3o2)cc1CC(=O)c1cc([N+](=O)[O-])c(C)c([N+](=O)[O-])c1 [Compound 5588] | 78.5 µM | 84 ± 35 µM | > 240 µM | MIC ([1]; 5 h, read-out: MIC100 (μM)): > 215 µM
2 | O=C(Nc1ccccc1)Nc1ccc(NC(=O)c2ccc(NC(=O)Nc3ccccc3)cc2)cc1 [Compound 5793] | 78.8 µM | 79 ± 38 µM | > 240 µM | –
3 | Nc1ncnc(Nc2ccc(Cl)cc2C(=O)c2ccccc2Cl)c1[N+](=O)[O-] [Compound 5616] | 208 µM | 231 ± 36 µM | > 247 µM | –
4 | O=C(Nc1ccc(S(=O)(=O)Nc2ccc(Cl)c(Cl)c2)cc1)Nc1ccccc1O [Compound 6399] | – | – | – | IC50 (HEK293): 163 µM; IC50 (hNaMNAT-1): 19 µM; IC50 (BEAS-23): 93 µM; IC50 (HCC1937; [3]): 40 µM; IC50 (Hep-G2): 84 µM; IC50 (IMR90): 181 µM
5 | O=C(Nc1ccc(Cc2ccc(NC(=O)c3ccc4c(c3)OCO4)cc2)cc1)c1ccc2c(c1)OCO2 [Compound 5818] | 65.7 µM | 65.7 µM | – | MIC ([1]; 5 h, read-out: MIC100 (μM)): > 240 µM
6 | O=C(O)c1cn(C2CC2)c2cc(N3CCNCC3)c(F)cc2c1=O [Cipro, ciprofloxacin hydrochloride, reference compound] | – | – | 0.5 µM | –
7 | COc1cccc(NC(=O)Nc2nnc(COc3ccc([N+](=O)[O-])cc3)s2)c1 [Compound 5807] | 124 µM | 124 ± 5 µM | > 240 µM | –
8 | Cc1cc(-c2nnc(CSc3nnc(NC(=O)c4ccc(F)c(Cl)c4)s3)o2)ccc1[N+](=O)[O-] [Compound 5731] | 271 µM | 270 ± 3 µM | > 240 µM | –
9 | O=[N+]([O-])c1ccc(O)c(/C=N/c2cccc(O)c2)c1 [Compound 5660] | 22.5 µM | 22.5 µM | > 387 µM | –
10 | O=C(Nc1ccc([N+](=O)[O-])cc1)c1ccc(-c2nnc(-c3ccccc3)o2)cc1 [Compound 5605] | 146 µM | 146 ± 0.2 µM | > 259 µM | MIC ([1]; 5 h, read-out: MIC100 (μM)): > 259 µM
11 | O=C(Nc1cccc(/N=C/c2cc([N+](=O)[O-])ccc2O)c1)c1ccc(Cl)cc1Cl [Compound 5691] | 106 µM | 106 ± 2 µM | > 232 µM | –
12 | CCOC(=O)C1=C(Nc2cccc3ccccc23)S/C(=C\c2ccc([N+](=O)[O-])cc2)C1=O [Compound 5597] | 86.1 µM | 86 ± 33 µM | > 224 µM | –
13 | Cc1cc(C)c2oc(-c3cccc(NC(=O)/C=C/c4cccc([N+](=O)[O-])c4)c3)nc2c1 [Compound 5806] | 67.8 µM | 68 ± 5 µM | > 240 µM | –
14 | Cc1ccc(C(=O)Nc2cccc(-c3nc4ccccc4[nH]3)c2)cc1 [Compound 5710] | 128 µM | 189 ± 86 µM | > 240 µM | –
15 | O=C(Nc1ccc(S(=O)(=O)Nc2ccccc2C(F)(F)F)cc1)Nc1cccc([N+](=O)[O-])c1 [Compound 6572] | – | – | – | IC50 (hNaMNAT-1): > 600 µM; IC50 (MDA-MB-436; MDA-MB-436, read-out: In Vitro Human Breast Cancer Inhibition (IC50, μM) MDA-MB-436): 35 µM; IC50 (HCC1937; HCC1937, read-out: In Vitro Human Breast Cancer Inhibition (IC50, μM) HCC1937): 35 µM; IC50 (SUM159; SUM159, read-out: In Vitro Human Breast Cancer Inhibition (IC50, μM) SUM159): 10 µM
16 | Cc1onc(-c2ccccc2)c1NC(=O)Nc1ccc(Oc2ncnc3cc(Cl)ccc23)nc1 [Compound 5763] | 232 µM | 232 ± 55 µM | > 240 µM | –
17 | O=C1C=C(Nc2ccccc2C(=O)O)C(=O)C=C1Nc1ccccc1C(=O)O [Compound 5589] | 137 µM | 118 ± 67 µM | > 264 µM | –
18 | O=C(COC(=O)c1ccc(NC(=O)c2ccc([N+](=O)[O-])cc2)cc1)c1ccc(F)cc1 [Compound 5606] | 141 µM | 176 ± 49 µM | > 237 µM | –
19 | Nc1c(C(=O)c2ccc([N+](=O)[O-])cc2)sc(Nc2ccccc2)c1-c1nc2ccccc2[nH]1 [Compound 5768] | 170 µM | 170 ± 48 µM | > 240 µM | –
20 | COc1ccc(Oc2ccc([N+](=O)[O-])cc2C(=O)Nc2ccc(S(N)(=O)=O)cc2)cc1 [Compound 5724] | 291 µM | 291 ± 29 µM | > 240 µM | –
21 | O=C(CCC(=O)Nc1ccc(Nc2ccccc2)cc1)Nc1ccc(Nc2ccccc2)cc1 [Compound 5604] | 141 µM | 256 ± 210 µM | > 222 µM | –
22 | Nc1ccc(NS(=O)(=O)c2ccc(NC(=O)Nc3ccc(Cl)c(Cl)c3)cc2)cc1 [Compound 6010] | – | – | – | IC50 (HEK293): > 200 µM; IC50 (hNaMNAT-1): > 600 µM; IC50 (BEAS-23): > 200 µM; IC50 (MDA-MB-436; [4]): 25 µM; IC50 (HCC1937; [3]): 20 µM; IC50 (Hep-G2): > 200 µM; IC50 (SUM159; [5]): 10 µM; IC50 (IMR90): > 200 µM
23 | O=C(Nc1ccc(/N=N/c2ccccc2)cc1)c1ccc([N+](=O)[O-])cc1 [Compound 5792] | 76 µM | 76 ± 13 µM | > 240 µM | –
24 | COc1cccc(NC(=O)Nc2ccc(S(=O)(=O)Nc3ccc(Cl)c(Cl)c3)cc2)c1 [Compound 6325] | – | – | – | MTD [2]: 50 mg/kg

Row | SMILES | IC50 (B. anthracis NADs; read-out: IC50) | IC50 (B. anthracis NADs; read-out: NADs IC50) | MIC ([1]; read-out: B.a. MIC (μM)) | further results
25 | O=[N+]([O-])c1ccc(-c2cnc(N/N=C/c3cccc([N+](=O)[O-])c3)nc2)cc1 [Compound 5591] | 160 µM | 160 ± 57 µM | > 274 µM | –
26 | O=C(Nc1ccc(S(=O)(=O)Nc2ccc(Cl)c(Cl)c2)cc1)Nc1cccc([N+](=O)[O-])c1 [Compound 6333] | – | – | – | MTD [2]: 250 mg/kg
27 | O=C(Nc1ccc(O)cc1)Nc1ccc(S(=O)(=O)Nc2ccc(Cl)c(Cl)c2)cc1 [Compound 6400] | – | – | – | IC50 (HEK293): > 200 µM; IC50 (hNaMNAT-1): 13 µM; IC50 (BEAS-23): > 200 µM; IC50 (MDA-MB-436; [4]): 95 µM; IC50 (HCC1937; [3]): 95 µM; IC50 (Hep-G2): 112 µM; IC50 (SUM159; [5]): 50 µM; IC50 (IMR90): > 200 µM
28 | O=C(Nc1cccc(/N=C/c2cc([N+](=O)[O-])ccc2O)c1)c1cccc(Br)c1 [Compound 5684] | 99.5 µM | 99 ± 12 µM | > 227 µM | –
29 | O=C(CSc1nc(Nc2ccccc2)nc(N2CCOCC2)n1)Nc1ccc([N+](=O)[O-])cc1O [Compound 5833] | – | – | 15 µM (≈ 7.25 µg/mL) | activity against B. anthracis (in words) [1]: good activities
30 | COc1ccccc1NC(=O)COc1ccc(/C=C(/C#N)c2nc3ccccc3[nH]2)cc1 [Compound 5822] | 107 µM | 178 ± 102 µM | > 240 µM | –
31 | O=C(Nc1cccc(C(=O)Nc2cccc3ccccc23)c1)c1cccc([N+](=O)[O-])c1 [Compound 5802] | 225 µM | 225 ± 36 µM | > 240 µM | –
32 | O=C(Nc1ccc2oc(-c3cc(Br)ccc3Cl)nc2c1)c1cccc([N+](=O)[O-])c1 [Compound 5798] | 61.8 µM | 61.8 µM | – | MIC ([1]; 5 h, read-out: MIC100 (μM)): > 240 µM
33 | O=C(Cn1cc(/C=C/c2[nH]c(=O)[nH]c(=O)c2[N+](=O)[O-])c2ccccc21)Nc1ccc(F)cc1 [Compound 5615] | 55.4 µM | 55.4 µM | – | MIC ([1]; 5 h, read-out: MIC100 (μM)): > 223 µM
34 | O=C(Nc1cccc(Oc2ccc3c(c2)C(=O)N(c2ccccc2)C3=O)c1)c1cccc([N+](=O)[O-])c1 [Compound 5799] | 175 µM | 202 ± 38 µM | > 240 µM | –
35 | COc1ccc(CCNC(=O)NCc2cccc(CNC(=O)NCCc3ccc(OC)cc3)c2)cc1 [Compound 5609] | 70 µM | 70 µM | > 204 µM | –
36 | O=C(Nc1ccc(S(=O)(=O)Nc2cccc(C(F)(F)F)c2)cc1)Nc1cccc(Cl)c1 [Compound 5991] | – | – | – | MTD [2]: 10 mg/kg
37 | COc1ccc(NC(=O)Nc2cccc(NC(=O)Nc3ccc(OC)cc3)c2F)cc1 [Compound 5707] | 253 µM | 253 ± 65 µM | > 240 µM | –
38 | O=C(Nc1ccc(S(=O)(=O)Nc2ncccn2)cc1)Nc1ccc(Cl)c(Cl)c1 [Compound 5617] | – | – | 15 µM (≈ 6.57 µg/mL) | activity against B. anthracis (in words) [1]: good activities
39 | NC(=O)c1ccc(/N=C/c2cc([N+](=O)[O-])ccc2Cl)cc1 [Compound 5679] | 262 µM | 262 ± 8 µM | > 329 µM | –
40 | COc1ccc(NC(=O)Nc2ccc(Oc3ncnc4cc(Cl)ccc34)nc2)cc1OC1CCCC1 [Compound 5764] | 97.2 µM | 97 ± 55 µM | > 240 µM | –
41 | Cc1c(NC(=O)c2ccc(N3CCCC3)c([N+](=O)[O-])c2)cccc1-c1nc2ccccc2[nH]1 [Compound 5830] | 198 µM | 193 ± 8 µM | > 240 µM | –
42 | CCOc1ccc(NS(=O)(=O)c2ccc(NC(=O)CCC(=O)c3ccccc3)cc2)cc1 [Compound 6484] | – | – | – | MTD [2]: > 500 mg/kg
43 | CCc1ccc(S(=O)(=O)Nc2c([N+](=O)[O-])ccc3ccccc23)cc1 [Compound 5599] | – | – | – | MIC ([1]; 5 h, read-out: MIC100 (μM)): 3.75 µM (≈ 1.34 µg/mL)
44 | N/C(=N\OC(=O)c1ccc(Cl)c(Cl)c1)c1cccc(CSc2ccccn2)c1 [Compound 5775] | 290 µM | 290 µM | > 240 µM | –
45 | O=C(NC(=S)Nc1cc(-c2nc3ccccc3[nH]2)ccc1Cl)c1ccccc1[N+](=O)[O-] [Compound 5831] | 243 µM | 243 ± 38 µM | > 240 µM | –
46 | NC(=O)c1ccc(NC(=O)c2ccc(Oc3ccc([N+](=O)[O-])cc3Cl)cc2)cc1 [Compound 5821] | 104 µM | 130 ± 37 µM | > 240 µM | –
47 | COc1ccccc1NC(=O)NC(=O)c1ccc(-c2csnn2)cc1 [Compound 5737] | 235 µM | 235 ± 71 µM | > 240 µM | –
